Patent US20230011571A1, “SMALL MOLECULE FURIN INHIBITORS FOR TREATING INFECTIOUS DISEASES” (BP Asset V, Inc., priority 2019, published 2023)

Columns and labels:
Type in all cases: cell-based
[1] = test system: Chikungunya virus (CHIKV); assay: microbe, parasite or virus in culture; settings: Chikungunya virus, Vero, 48 h, read-out: Percent viral inhibition CHKV
[2] = test system: Marburg virus (MARV); assay: organism not typed; settings: Vero, 72 h, read-out: Percent viral inhibition MARV
[3] = test system: dengue virus (DENV); assay: microbe, parasite or virus in culture; settings: Dengue virus, Vero, 120 h, read-out: Percent viral inhibition DENY

| Structure (SMILES) | inhibition at 1 µM [1] [%] | inhibition at 1 µM [2] [%] | inhibition at 1 µM [3] [%] |
| --- | --- | --- | --- |
| CC(=O)NCC1CCN(Cc2cc(Oc3ccc(N4CCN(CCC(=O)O)CC4)nn3)nc(-c3cc(Cl)cc(Cl)c3)c2)CC1 [Example 169, 3-(4-(6-((4-((4-(acetamidomethyl)piperidin-1-yl)methyl)-6-(3,5-dichlorophenyl)pyridin-2-yl)oxy)pyridazin-3-yl)piperazin-1-yl)propanoic acid] | 0 | 16.4 | 0 |
| CC(=O)NCC1CCN(Cc2cc(Oc3cnc(N4CCN(CCC(N)=O)CC4)nc3)cc(-c3cc(Cl)cc(Cl)c3)c2)CC1 [Example 170, 3-(4-(5-((5-((4-(acetamidomethyl)piperidin-1-yl)methyl)-3′,5′-dichloro-[1,1′-biphenyl]-3-yl)oxy)pyrimidin-2-yl)piperazin-1-yl)propanamide] | 7.29 | 10.3 | 57.6 |
| CNC(=O)NCC1CCN(Cc2cc(Oc3cnc(N4CCN(CCCO)CC4)nc3)nc(-c3cc(Cl)cc(Cl)c3)c2)CC1 [Example 171, 1-((1-((2-(3,5-dichlorophenyl)-6-((2-(4-(3-hydroxypropyl)piperazin-1-yl)pyrimidin-5-yl)oxy)pyridin-4-yl)methyl)piperidin-4-yl)methyl)-3-methylurea] | 0 | 0 | 41.7 |
| O=C(O)CC1CCN(Cc2cc(Oc3cnc(N4CCN(CC(O)CO)CC4)nc3)nc(-c3cc(Cl)cc(Cl)c3)c2)CC1 (stereo not drawn) [Example 177, 2-(1-((2-(3,5-dichlorophenyl)-6-((2-(4-(2,3-dihydroxypropyl)piperazin-1-yl)pyrimidin-5-yl)oxy)pyridin-4-yl)methyl)piperidin-4-yl)acetic acid] | 14.3 | 37 | 24 |
| CC(=O)NCC1CCN(Cc2cc(Oc3ccc(N4CC[N+](C)([O-])CC4)nc3)nc(-c3cc(Cl)cc(Cl)c3)c2)CC1 [Example 178, 4-(5-((4-((4-(acetamidomethyl)piperidin-1-yl)methyl)-6-(3,5-dichlorophenyl)pyridin-2-yl)oxy)pyridin-2-yl)-1-methylpiperazinel-oxide] | 30.4 | 57.7 | 71.1 |
| CC(=O)NCC1CCN(Cc2cc(Oc3ccc(N4CC[N+](CCO)(CCO)CC4)nc3)nc(-c3cc(Cl)cc(Cl)c3)c2)CC1 [Example 179, 4-(5-((4-((4-(acetamidomethyl)piperidin-1-yl)methyl)-6-(3,5-dichlorophenyl)pyridin-2-yl)oxy)pyridin-2-yl)-1,1-bis(2-hydroxyethyl) piperazin-1-ium] | 5.87 | 27.4 | 42.1 |
| CC(=O)NCC1CCN(Cc2cc(Oc3ccc(N4CCN(CCO)CC4)nc3)nc(-c3cc(Cl)cc(Cl)c3)c2)CC1 [Example 180, N-((1-((2-(3,5-dichlorophenyl)-6-((6-(4-(2-hydroxyethyl)piperazin-1-yl)pyridin-3-yl)oxy)pyridin-4-yl)methyl)piperidin-4-yl)methyl)acetamide] | 0 | 25.4 | 10.4 |
| CC(=O)NCC1CCN(Cc2cc(Oc3ccc(N4CC[N+](C)(C)CC4)nc3)nc(-c3cc(Cl)cc(Cl)c3)c2)CC1 [Example 181, 4-(5-((4-((4-(acetamidomethyl)piperidin-1-yl)methyl)-6-(3,5-dichlorophenyl)pyridin-2-yl)oxy)pyridin-2-yl)-1,1-dimethylpiperazin-1-ium] | 11.7 | 12.5 | 49.1 |
| CC(=O)NCC1CCN(Cc2cc(Oc3ccc(N4C[C@@H]5C[C@H]4CN5CCS(C)(=O)=O)nc3)nc(-c3cc(Cl)cc(Cl)c3)c2)CC1 [Example 183, N-((1-((2-(3,5-dichlorophenyl)-6-((6-((1S,4S)-5-(2-(methylsulfonyl)ethyl)-2,5-diazabicyclo[2.2.1]heptan-2-yl)pyridin-3-yl)oxy)pyridin-4-yl)methyl)piperidin-4-yl)methyl)acetamide] | 16.4 | 74.8 | 21 |
| CC(=O)NCC1CCN(Cc2cc(Oc3ccc(N4C[C@H]5CC[C@@H](C4)N5CCC(=O)O)nc3)nc(-c3cc(Cl)cc(Cl)c3)c2)CC1 [Example 185, 3-((1R,5S)-3-(5-((4-((4-(acetamidomethyl)piperidin-1-yl)methyl)-6-(3,5-dichlorophenyl)pyridin-2-yl)oxy)pyridin-2-yl)-3,8-diazabicyclo[3.2.1]octan-8-yl) propanoic acid] | 22.9 | 64.2 | 0 |
| CC(=O)NCC1CCN(Cc2cc(Oc3ccc(N4CCN(CCC(=O)O)[C@@H](C)C4)nc3)nc(-c3cc(Cl)cc(Cl)c3)c2)CC1 [Example 186] | 19.9 | 30.6 | 53.9 |
| O=C(O)CC1CCN(Cc2cc(Oc3ccc(N4C[C@@H]5C[C@H]4CN5)nc3)nc(-c3cc(Cl)cc(Cl)c3)c2)CC1 [Example 187, 2-(1-((2-((6-((1S,4S)-2,5-diazabicyclo[2.2.1]heptan-2-yl)pyridin-3-yl)oxy)-6-(3,5-dichlorophenyl)pyridin-4-yl)methyl)piperidin-4-yl) acetic acid] | 22.4 | 24.1 | 84 |
| CC(=O)NCC1CCN(Cc2cc(Oc3ccc(N4CCCN(CCC(=O)O)CC4)nc3)nc(-c3cc(Cl)cc(Cl)c3)c2)CC1 [Example 190, 3-(4-(5-((4-((4-(acetamidomethyl)piperidin-1-yl)methyl)-6-(3,5-dichlorophenyl)pyridin-2-yl)oxy)pyridin-2-yl)-1,4-diazepan-1-yl)propanoic acid] | 2.11 | 44.8 | 41.8 |
| CC(=O)NCC1CCN(Cc2cc(Oc3ccc(N4CCN(CCC(=O)O)C(C)(C)C4)nc3)nc(-c3cc(Cl)cc(Cl)c3)c2)CC1 [Example 191] | 14.2 | 50.6 | 71.2 |
| CC(=O)NCC1CCN(Cc2cc(Oc3ccc(N4CCNC(CO)C4)nc3)nc(-c3cc(Cl)cc(Cl)c3)c2)CC1 (stereo not drawn) [Example 195, N-((1-((2-(3,5-dichlorophenyl)-6-((6-(3-(hydroxymethyl)piperazin-1-yl)pyridin-3-yl)oxy)pyridin-4-yl)methyl)piperidin-4-yl)methyl)acetamide] | 18.1 | 38.2 | 39.4 |
| CC(=O)NCC1CCN(Cc2cc(Oc3ccc(N4CCC5(CCNC5)C4)nc3)nc(-c3cc(Cl)cc(Cl)c3)c2)CC1 (stereo not drawn) [Example 199, N-((1-((2-((6-(2,7-diazaspiro[4.4]-nonan2-yl)pyridin-3-yl)oxy)-6-(3,5-dichlorophenyl)pyridin-4-yl)methyl)piperidin-4-yl)methyl)acetamide] | 21.6 | 18.5 | 49 |
| CN1C[C@@H]2C[C@H]1CN2c1ccc(Oc2cc(CN3CCC(CC(=O)O)CC3)cc(-c3cc(Cl)cc(Cl)c3)n2)cn1 [Example 203, 2-(1-((2-(3,5-dichlorophenyl)-6-((6-((1S,4S)-5-methyl-2,5-diazabicyclo[2.2.1]heptan-2-yl)pyridin-3-yl)oxy)pyridin-4-yl)methyl)piperidin-4-yl)acetic acid] | 23.6 | 55.2 | 7.17 |
| CC(CCN1CCN(c2ncc(Oc3cc(CN4CCC(CC(=O)O)CC4)cc(-c4cc(Cl)cc(Cl)c4)n3)cn2)CC1)S(C)(=O)=O (stereo not drawn) [Example 205, 2-(1-((2-(3,5-dichlorophenyl)-6-((2-(4-(3-(methylsulfonyl)butyl)piperazin-1-yl)pyrimidin-5-yl)oxy)pyridin-4-yl)methyl)piperidin-4-yl)acetic acid] | 23.7 | 77.6 | 57.6 |
| O=C(O)CC1CCN(Cc2cc(Oc3cnc(N4CCNCC4)nc3)nc(-c3cc(Cl)cc(Cl)c3)c2)CC1 [Example 206, 2-(1-((2-(3,5-dichlorophenyl)-6-((2-(piperazin-1-yl)pyrimidin-5-yl)oxy)pyridin-4-yl)methyl)piperidin-4-yl)acetic acid] | 34.4 | 50.8 | 29.3 |
| CN1CCN(c2ncc(Oc3cc(CN4CCC(CC(=O)O)CC4)cc(-c4cc(Cl)cc(Cl)c4)n3)cn2)CC1 [Example 207, 2-(1-((2-(3,5-dichlorophenyl)-6-((2-(4-methylpiperazin-1-yl)pyrimidin-5-yl)oxy)pyridin-4-yl)methyl)piperidin-4-yl)acetic acid] | 26.3 | 42.2 | 47.9 |
| CNC(=O)OCC1CCN(Cc2cc(Oc3cnc(N4CCN(C(C)CCC(=O)O)CC4)nc3)nc(-c3cc(Cl)cc(Cl)c3)c2)CC1 (stereo not drawn) [Example 208, 4-(4-(5-((6-(3,5-dichlorophenyl)-4-((4-(((methylcarbamoyl)oxy)methyl)piperidin-1-yl)methyl)pyridin-2-yl)oxy)pyrimidin-2-yl)piperazin-1-yl)pentanoic acid] | 46.3 | 55.2 | 68.6 |
| CNC(=O)OCC1CCN(Cc2cc(Oc3cnc(N4CCN(CCCS(C)(=O)=O)CC4)nc3)nc(-c3cc(Cl)cc(Cl)c3)c2)CC1 [Example 210, (1-((2-(3,5-dichlorophenyl)-6-((2-(4-(3-(methylsulfonyl)propyl)piperazin-1-yl)pyrimidin-5-yl)oxy)pyridin-4-yl)methyl)piperidin-4-yl)methylmethylcarbamate] | 3.75 | 32.6 | 21 |
| CNC(=O)OCC1CCN(Cc2cc(Oc3cnc(N4CCN(C5CC(C(=O)O)C5)CC4)nc3)nc(-c3cc(Cl)cc(Cl)c3)c2)CC1 (stereo not drawn) [Example 211, 3-(4-(5-((6-(3,5-dichlorophenyl)-4-((4-(((methylcarbamoyl)oxy)methyl)piperidin-1-yl)methyl)pyridin-2-yl)oxy)pyrimidin-2-yl)piperazin-1-yl)cyclobutanecarboxylic acid] | 44.7 | 62.5 | 13.3 |
